{
  "source": "patent US8093265B2",
  "about": "“Bicycloheteroaryl compounds as P2X7 modulators and uses thereof” (Renovis, Inc., priority 2007, dated 2012)",
  "key": {"[1]": {"assay": "Half-life in human liver microsomes (HLM)", "format": "in vitro ADME", "conditions": "human liver microsomes 0.78 mg/mL, 1 μM compound, NADPH, 37° C.; for half-life at 1 μM: pH 7.4", "description": "Half-Life in Human Liver Microsomes (HLM)\nTest compounds (1 μM) are incubated with 3.3 mM MgCl2 and 0.78 mg/mL HLM (HL101) in 100 mM potassium phosphate buffer (pH 7.4) at 37° C. on the 96-deep well plate. The reaction mixture is split into two groups, a non-P450 and a P450 group. NADPH is only added to the reaction mixture of the P450 group. An aliquot of samples of P450 group is collected at 0, 10, 30, and 60 min time point, where 0 min time point indicated the time when NADPH is added into the reaction mixture of P450 group. […] Collected aliquots are extracted with acetonitrile solution containing an internal standard. […] The compound concentration in supernatant is measured by LC/MS/MS system.\nThe half-life value is obtained by plotting the natural logarithm of the peak area ratio of compounds/internal standard versus time. The slope of the line of best fit through the points yields the rate of metabolism (k). This is converted to a half-life value using following equations: Half-life=ln 2/k"}, "[2]": {"assay": "Pharmacokinetic evaluation following intravenous and oral administration in rats", "format": "in vivo, rat", "conditions": "male Sprague-Dawley rats; PO 1 to 5 mg/kg vs IV 1 mg/kg; AUCinf(PO)/AUCinf(IV) dose-normalized", "protocol": "Pharmacokinetic Evaluation of Compounds Following Intravenous and Oral Administration in Rats.\nMale Sprague-Dawley rats are acclimated for at least 24 hours prior to experiment initiation. During the acclimation period, all animals receive food and water ad libitum. However, food but not water is removed from the animals' cages at least 12 hours before initiation of the experiment. During the first 3 hours of experimentation, the animals receive only water ad libitum. At least three animals each are tested for intravenous and oral dosage. For intravenous formulation, compounds are dissolved (0.25 to 1 mg/mL) in a mixture of 3% dimethyl sulfoxide, 40% PEG 400 and the rest percentage of 40% Captisol in water (w/v). The animals are weighed before dosing. The determined body weight is used to calculate the dose volume for each animal. Dose volume (mL/kg)=1 mg/kg/formulation concentration (mg/mL)\nIn instances where the formulation concentrations are less than 0.5 mg/mL, the dosing volume is about 2 mL/kg.\nFor oral formulation, compounds of this invention are suspended (0.5 to 0.75 mg/mL) in a mixture of 5% of 10% Tween 80 in water (v/v) and 95% of 0.5% methyl cellulose in water (w/v). PO rats are typically dosed through oral gavage following the same dose volume formula as IV to achieve a dose level of 1 to 5 mg/kg. For IV dosing, blood samples are collected (using a pre-heparinized syringe) via the jugular vein catheter at 2, 5, 15, 30, 60, 120, 180, 300, 480, and 1440 minutes post dosing. For PO dosing blood samples are collected (using a pre-heparinized syringe) via the jugular vein catheter before dosing and at 5, 15, 30, 60, 120, 180, 300, 480, and 1440 minutes post dosing. About 250 uL of blood is obtained at each time point from the animal. Equal volumes of 0.9% normal saline are replaced to prevent dehydration. The whole blood samples are maintained on ice until centrifugation. Blood samples are then centrifuged at 14,000 rpm for 10 minutes at 4° C., and the upper plasma layer is then transferred into a clean vial and stored at −80° C. The resulting plasma samples are then analyzed by liquid chromatography-tandem mass spectrometry. Following the measurement of plasma samples and dosing solutions, plasma concentration-time curve is plotted. Plasma exposure is calculated as the area under the concentration-time curve extrapolated to time infinite (AUCinf). The AUCinf is averaged and the oral bioavailability (% F) for individual animal is calculated as: • AUCinf(PO)/AUCinf(IV), normalized to their respective dose levels.\nThe % F can be reported as the mean % F of all animals dosed orally with the compound of the invention at the specified level.\nFor the purpose of Table 3, the oral bioavailability of each compound is expressed as follows: […]"}, "P2X7 receptor": {"molecular_target": "T1, P2X7 receptor (Homo sapiens, UniProt Q99572)", "T1 construct": "host or cells: THP-1 cells differentiated with LPS and IFN-γ", "T1 sequence (Q99572 1-595)": "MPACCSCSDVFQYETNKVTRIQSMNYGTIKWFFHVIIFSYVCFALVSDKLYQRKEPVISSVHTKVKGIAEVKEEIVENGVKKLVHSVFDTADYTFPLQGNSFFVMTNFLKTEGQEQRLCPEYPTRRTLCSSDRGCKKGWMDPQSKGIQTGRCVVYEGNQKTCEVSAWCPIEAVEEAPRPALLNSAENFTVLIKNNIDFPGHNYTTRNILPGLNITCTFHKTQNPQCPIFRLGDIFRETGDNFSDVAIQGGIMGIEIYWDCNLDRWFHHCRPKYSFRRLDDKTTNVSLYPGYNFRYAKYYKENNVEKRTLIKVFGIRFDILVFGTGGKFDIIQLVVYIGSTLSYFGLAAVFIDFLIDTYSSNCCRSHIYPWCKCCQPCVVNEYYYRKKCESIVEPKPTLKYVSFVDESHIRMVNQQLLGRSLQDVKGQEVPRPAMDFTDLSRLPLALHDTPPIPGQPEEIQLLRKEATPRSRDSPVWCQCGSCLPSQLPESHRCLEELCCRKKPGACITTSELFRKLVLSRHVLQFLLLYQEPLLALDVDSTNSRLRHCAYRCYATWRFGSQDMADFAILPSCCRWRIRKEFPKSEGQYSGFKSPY", "assay": "IL-1β release assay in differentiated THP-1 cells (Example 9)", "format": "cell-based", "conditions": "THP-1 cells differentiated with LPS and IFN-γ; 30 min pretreatment; BzATP 250 uM; IL-1β by ELISA", "summary_of_the_method": "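THP-1 cells differentiated 16 h with LPS and IFN-γ (100 ng/mL each), re-primed 2 h with LPS, then pretreated 30 min with compound before 250 uM BzATP for 45 min. Supernatant IL-1β measured by ELISA; background-adjusted % inhibition fitted to a four-parameter logistic for IC50.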"}, "[3]": {"assay": "Plasma protein binding by equilibrium dialysis, human plasma", "format": "in vitro ADME", "conditions": "pH 7.4, equilibrium dialysis 16 hr at 37° C., % Bound", "protocol": "The plasma protein binding of compounds of invention is measured in human and rat plasma, respectively. A stock solution of the tested compound is prepared in 1 mg/mL in DMSO solution. The stock solution is spiked into the blank plasma to get a final compound concentration at 1 μg/mL for testing. Equilibrium dialysis (The equilibrium dialyzer-96TM MWCO 5K Daltons, Harvard Apparatus) method is used for the testing purpose.\nThe compound spiked plasma (at […]) and phosphate buffer (0.1 M, pH 7.4), 200 μl each, are added into the opposite sides of the membrane in a 96-well equilibrium dialyzer, respectively. The dialyzer plate is covered and incubated overnight (16 hr) at 37° C. in the 8-plate rotor incubator (Big Shot III 8-plate rotor, Harvard Apparatus). Aliquots (100 μL) are taken from the plasma and the buffer compartments, respectively. The matrix effects are eliminated by adding the same volume of blank plasma into the samples from buffer compartments and adding the same volume of phosphate buffer into the samples from plasma compartments. The samples are extracted by using the regular (3:1) protein precipitation extraction procedure (acetonitrile with internal standard). The supernatants are taken for LC/MS/MS analysis. The percentage of plasma-protein binding can be calculated by using the following method: % Free=[Free Drug/Total Drug]*100=[(Peak Area)buffer/(Peak Area)plasma]*100 % Bound=100−% Free.\nFor the purpose of Table 4, the plasma protein binding of each compound is expressed as follows: […]"}},
  "data": [
    {"smiles": "Cc1ccc2c(=O)n([C@H]3CCNC3)ccc2c1NC(=O)Cc1ccc(C(F)(F)F)c(F)c1", "note": "[Compound 29, 2-(3-Fluoro-4-trifluoromethyl-phenyl)-N-((S)-6-methyl-1-oxo-2-pyrrolidin-3-yl-1,2-dihydro-isoquinolin-5-yl)-acetamide]", "values": [
      {"measurement": "half-life at 1 μM", "setting": "[1]", "result": 3.5, "unit": "h"},
      {"measurement": "Oral Bioavailability F (%)", "setting": "[2]", "result": "+ (0-25% F)"},
      {"measurement": "IC50", "setting": "P2X7 receptor", "result": 23, "unit": "nM"}
    ]},
    {"smiles": "Cc1ccc2c(=O)n([C@H](C)CO)ccc2c1NC(=O)Cc1ccc(Cl)c(F)c1", "note": "[Compound 26, 2-(4-Chloro-3-fluoro-phenyl)-N-[2-((R)-2-hydroxy-1-methyl-ethyl)-6-methyl-1-oxo-1,2-dihydro-isoquinolin-5-yl]-acetamide]", "values": [
      {"measurement": "half-life at 1 μM", "setting": "[1]", "result": 1.6, "unit": "h"},
      {"measurement": "Oral Bioavailability F (%)", "setting": "[2]", "result": "+++ (51-75% F)"},
      {"measurement": "IC50", "setting": "P2X7 receptor", "result": 5, "unit": "nM"},
      {"measurement": "fraction unbound at 16 hr, 1 μg/mL", "setting": "[3]", "result": "0.1 to 0.24"}
    ]},
    {"smiles": "C[C@H](C(N)=O)n1ccc2c(NC(=O)Cc3cccc(C(F)(F)F)c3F)c(Cl)ccc2c1=O", "note": "[Compound 5, (R)-2-{6-Chloro-5-[2-(2-fluoro-3-trifluoromethyl-phenyl)-acetylamino]-1-oxo-1H-isoquinolin-2-yl}-propionamide]", "values": [
      {"measurement": "Half Life", "setting": "[1]", "result": 1.2, "unit": "h"},
      {"measurement": "Oral Bioavailability F (%)", "setting": "[2]", "result": "+ (0-25% F)"},
      {"measurement": "IC50", "setting": "P2X7 receptor", "result": 7, "unit": "nM"}
    ]},
    {"smiles": "C[C@H](CO)n1ccc2c(NC(=O)Cc3ccc(C(F)(F)F)cc3)c(Cl)ccc2c1=O", "note": "[Compound 10, N-[6-Chloro-2-((R)-2-hydroxy-1-methyl-ethyl)-1-oxo-1,2-dihydro-isoquinolin-5-yl]-2-(4-trifluoromethyl-phenyl)-acetamide]", "values": [
      {"measurement": "Half Life", "setting": "[1]", "result": 3.2, "unit": "h"},
      {"measurement": "Oral Bioavailability F (%)", "setting": "[2]", "result": "++++ (>75% F)"},
      {"measurement": "IC50", "setting": "P2X7 receptor", "result": 10, "unit": "nM"},
      {"measurement": "fraction unbound at 16 hr, 1 μg/mL", "setting": "[3]", "result": "< 0.1"}
    ]},
    {"smiles": "O=C(Cc1ccc(F)c(C(F)(F)F)c1)Nc1c(Cl)ccc2c(=O)n(CCO)ccc12", "note": "[Compound 19, N-[6-Chloro-2-(2-hydroxy-ethyl)-1-oxo-1,2-dihydro-isoquinolin-5-yl]-2-(4-fluoro-3-trifluoromethyl-phenyl)-acetamide]", "values": [
      {"measurement": "Half Life", "setting": "[1]", "result": 1.1, "unit": "h"},
      {"measurement": "Oral Bioavailability F (%)", "setting": "[2]", "result": "+ (0-25% F)"},
      {"measurement": "IC50", "setting": "P2X7 receptor", "result": 5, "unit": "nM"},
      {"measurement": "fraction unbound at 16 hr, 1 μg/mL", "setting": "[3]", "result": "< 0.1"}
    ]},
    {"smiles": "Cc1ccc2c(=O)n([C@H](C)CO)ccc2c1C(=O)NCC1CCCCCC1", "note": "[Compound 49, 2-((R)-2-Hydroxy-1-methyl-ethyl)-6-methyl-1-oxo-1,2-dihydro-isoquinoline-5-carboxylic acid cycloheptylmethyl-amide]", "values": [
      {"measurement": "half-life at 1 μM", "setting": "[1]", "result": 0.3, "unit": "h"},
      {"measurement": "Oral Bioavailability F (%)", "setting": "[2]", "result": "+ (0-25% F)"},
      {"measurement": "IC50", "setting": "P2X7 receptor", "result": 0.7, "unit": "nM"}
    ]},
    {"smiles": "O=C(Cc1ccc(C(F)(F)F)c(F)c1)Nc1c(Cl)ccc2c(=O)n(CCO)ccc12", "note": "[Compound 16, N-[6-Chloro-2-(2-hydroxy-ethyl)-1-oxo-1,2-dihydro-isoquinolin-5-yl]-2-(3-fluoro-4-trifluoromethyl-phenyl)-acetamide]", "values": [
      {"measurement": "Half Life", "setting": "[1]", "result": 3.7, "unit": "h"},
      {"measurement": "Oral Bioavailability F (%)", "setting": "[2]", "result": "++++ (>75% F)"},
      {"measurement": "IC50", "setting": "P2X7 receptor", "result": 6, "unit": "nM"},
      {"measurement": "fraction unbound at 16 hr, 1 μg/mL", "setting": "[3]", "result": "< 0.1"}
    ]},
    {"smiles": "Cc1ccc2c(=O)n([C@H](C)C(N)=O)ccc2c1NC(=O)Cc1ccc(C(F)(F)F)c(F)c1", "note": "[Compound 51, (R)-2-{5-[2-(3-Fluoro-4-trifluoromethyl-phenyl)-acetylamino]-6-methyl-1-oxo-1H-isoquinolin-2-yl}-propionamide]", "values": [
      {"measurement": "half-life at 1 μM", "setting": "[1]", "result": 1.3, "unit": "h"},
      {"measurement": "Oral Bioavailability F (%)", "setting": "[2]", "result": "+ (0-25% F)"},
      {"measurement": "IC50", "setting": "P2X7 receptor", "result": 0.4, "unit": "nM"}
    ]},
    {"smiles": "C[C@H](C(N)=O)n1ccc2c(NC(=O)CC34CC5CC(CC(C5)C3)C4)c(Cl)ccc2c1=O", "note": "[Compound 2]", "values": [
      {"measurement": "half-life at 1 μM", "setting": "[1]", "result": 0.8, "unit": "h"},
      {"measurement": "Oral Bioavailability F (%)", "setting": "[2]", "result": "+ (0-25% F)"},
      {"measurement": "IC50", "setting": "P2X7 receptor", "result": 0.1, "unit": "nM"}
    ]},
    {"smiles": "C[C@H](CO)n1ccc2c(NC(=O)Cc3ccc(C(F)(F)F)c(F)c3)c(Cl)ccc2c1=O", "note": "[Compound 11, N-[6-Chloro-2-((R)-2-hydroxy-1-methyl-ethyl)-1-oxo-1,2-dihydro-isoquinolin-5-yl]-2-(3-fluoro-4-trifluoromethyl-phenyl)-acetamide]", "values": [
      {"measurement": "Half Life", "setting": "[1]", "result": 1.6, "unit": "h"},
      {"measurement": "Oral Bioavailability F (%)", "setting": "[2]", "result": "++++ (>75% F)"},
      {"measurement": "IC50", "setting": "P2X7 receptor", "result": 5, "unit": "nM"},
      {"measurement": "fraction unbound at 16 hr, 1 μg/mL", "setting": "[3]", "result": "< 0.1"}
    ]}
  ]
}
